Laboratory results as given in patent US7465741B2, “C-substituted tricyclic isoxazoline derivatives and their use as anti-depressants” (Janssen Pharmaceutica N.V., priority 2002, dated 2008).
Where a name gives a salt, the structure may show the parent alone.

How the values were obtained:
hα2A receptor = target: T1, hα2A receptor (Homo sapiens, UniProt P08913); assay: Radioligand binding experiment for hα2A receptor ([3H]-raulwolscine, CHO cell membranes); details: [3H]-raulwolscine 1 nM, membranes of CHO cells transfected with human α2A receptor; read-out: pIC50 hα2A (converted)
T1 construct: expressed in transfected cells; host or cells: CHO cells
T1 sequence (P08913 1-465): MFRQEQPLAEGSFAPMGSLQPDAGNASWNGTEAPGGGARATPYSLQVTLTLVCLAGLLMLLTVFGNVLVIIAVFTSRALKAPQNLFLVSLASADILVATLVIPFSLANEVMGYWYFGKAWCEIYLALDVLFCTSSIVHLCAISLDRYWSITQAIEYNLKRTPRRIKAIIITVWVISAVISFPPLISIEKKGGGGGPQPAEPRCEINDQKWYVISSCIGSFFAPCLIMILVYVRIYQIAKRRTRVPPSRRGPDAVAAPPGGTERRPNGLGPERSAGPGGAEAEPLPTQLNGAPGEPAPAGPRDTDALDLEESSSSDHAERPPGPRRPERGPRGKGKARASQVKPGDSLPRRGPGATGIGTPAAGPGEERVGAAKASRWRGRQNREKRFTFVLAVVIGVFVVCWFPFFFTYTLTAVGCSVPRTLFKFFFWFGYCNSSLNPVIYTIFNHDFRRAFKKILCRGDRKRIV
Experimental: (§1) The interaction of the compounds according to Formula (I) with hα2-receptors and h5-HT-transporters was assessed in in vitro radioligand binding experiments. In general, a low concentration of a radioligand with a high binding affinity for a particular receptor or transporter is incubated with a sample of a tissue preparation enriched in a particular receptor or transporter or with a preparation of cells expressing cloned human receptors in a buffered medium. During the incubation, the radioligand binds to the receptor or transporter. When equilibrium of binding is reached, the receptor bound radioactivity is separated from the non-bound radioactivity, and the receptor- or transporter-bound activity is counted. The interaction of the test compounds with the receptor is assessed in competition binding experiments. Various concentrations of the test compound are added to the incubation mixture containing the receptor- or transporter preparation and the radioligand. The test compound in proportion to its binding affinity and its concentration inhibits binding of the radioligand. The radioligand used for hα2A, hα2B and hα2C receptor binding was [^3H]-raulwolscine and for the h5-HT transporter was [^3H]paroxetine.
(§2) CHO cells, stabile transfected with human adrenergic-α2A-, —α2B or α2C receptor cDNA, were cultured in Dulbecco's Modified Eagle's Medium (DMEM)/Nutrient mixture Ham's F12 (ratio 1:1)(Gibco, Gent-Belgium) supplemented with 10% heat inactivated fetal calf serum (Life Technologies, Merelbeke-Belgium) and antibiotics (100 IU/ml penicillin G, 100 μg/ml streptomycin sulphate, 110 μg/ml pyruvic acid and 100 μg/ml L-glutamine). One day before collection, cells were induced with 5 mM sodiumbutyrate. Upon 80-90% of confluence, cells were scraped in phosphate buffered saline without Ca^2+ and Mg^2+ and collected by centrifugation at 1500×g for 10 min. The cells were homogenised in Tris-HCl 50 mM using an Ultraturrax homogenizer and centrifuged for 10 min at 23,500×g. The pellet was washed once by resuspension and rehomogenization and the final pellet was resuspended in Tris-HCl, divided in 1 ml aliquots and stored at −70° C.
(§3) Membranes were thawed and re-homogenized in incubation buffer (glycylglycine 25 mM, pH 8.0). In a total volume of 500 μl, 2-10 μg protein was incubated with [^3H]raulwolscine (NET-722) (New England Nuclear, USA) (1 nM final concentration) with or without competitor for 60 min at 25° C. followed by rapid filtration over GF/B filter using a Filtermate196 harvester (Packard, Meriden, Conn.). Filters were rinsed extensively with ice-cold rinsing buffer (Tris-HCl 50 mM pH 7.4). Filter-bound radioactivity was determined by scintillation counting in a Topcount (Packard, Meriden, Conn.) and results were expressed as counts per minute (cpm). Non-specific binding was determined in the presence of 1 μM oxymetazoline for hα2A- and hα2B receptors and 1 μM spiroxatrine for hα2C receptors.
(§4) Data from assays in the presence of compound were calculated as a percentage of total binding measured in the absence of test compound. Inhibition curves, plotting percent of total binding versus the log value of the concentration of the test compound, were automatically generated, and sigmoidal inhibition curves were fitted using non-linear regression. The pIC50 values of test compounds were derived from individual curves.

hα2B receptor = target: T2, hα2B receptor (Homo sapiens, UniProt P18089); assay: Radioligand binding experiment for hα2B receptor ([3H]-raulwolscine, CHO cell membranes); details: [3H]-raulwolscine 1 nM, membranes of CHO cells transfected with human α2B receptor; read-out: pIC50 hα2B (converted)
T2 construct: expressed in transfected cells; host or cells: CHO cells
T2 sequence (P18089 1-450): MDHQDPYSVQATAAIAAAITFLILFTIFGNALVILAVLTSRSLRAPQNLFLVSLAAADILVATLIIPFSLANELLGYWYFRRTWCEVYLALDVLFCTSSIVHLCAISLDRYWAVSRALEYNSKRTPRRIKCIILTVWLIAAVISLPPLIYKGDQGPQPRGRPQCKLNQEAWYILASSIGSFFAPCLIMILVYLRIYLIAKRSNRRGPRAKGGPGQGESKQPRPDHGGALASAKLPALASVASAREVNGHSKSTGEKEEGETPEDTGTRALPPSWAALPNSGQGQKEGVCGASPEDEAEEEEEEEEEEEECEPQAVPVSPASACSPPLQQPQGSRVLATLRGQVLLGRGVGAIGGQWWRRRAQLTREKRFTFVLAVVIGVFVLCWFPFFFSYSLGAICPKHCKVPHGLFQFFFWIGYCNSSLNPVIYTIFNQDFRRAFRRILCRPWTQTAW
Experimental: as §1, §2, §3, §4

hα2C receptor = target: T3, hα2C receptor (Homo sapiens, UniProt P18825); assay: Radioligand binding experiment for hα2C receptor ([3H]-raulwolscine, CHO cell membranes); details: [3H]-raulwolscine 1 nM, membranes of CHO cells transfected with human α2C receptor; read-out: pIC50 hα2C (converted)
T3 construct: expressed in transfected cells; host or cells: CHO cells
T3 sequence (P18825 1-462): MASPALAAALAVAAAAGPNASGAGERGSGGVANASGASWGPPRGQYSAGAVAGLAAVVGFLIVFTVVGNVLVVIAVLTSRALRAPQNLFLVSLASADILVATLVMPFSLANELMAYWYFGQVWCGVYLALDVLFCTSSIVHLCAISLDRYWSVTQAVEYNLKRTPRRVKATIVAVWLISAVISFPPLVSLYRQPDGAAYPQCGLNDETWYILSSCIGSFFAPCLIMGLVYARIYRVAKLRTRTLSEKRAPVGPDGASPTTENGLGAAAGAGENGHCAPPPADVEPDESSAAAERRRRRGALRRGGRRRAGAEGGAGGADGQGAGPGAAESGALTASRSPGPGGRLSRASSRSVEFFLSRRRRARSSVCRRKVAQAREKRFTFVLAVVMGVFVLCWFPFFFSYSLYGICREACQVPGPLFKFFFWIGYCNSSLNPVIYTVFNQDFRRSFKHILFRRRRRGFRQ
Experimental: as §1, §2, §3, §4

h5-HT transporter = target: T4, h5-HT transporter (Homo sapiens, UniProt P31645); assay: Radioligand binding experiment for 5-HT transporter ([3H]paroxetine, human platelet membranes); details: [3H]paroxetine 0.5 nM, read-out: pIC50 h5HTT (converted)
T4 construct: Human platelet membranes (Oceanix Biosciences Corporation, Hanover, Md., USA) were thawed; tissue Oceanix Biosciences Corporation; host or cells: human platelet membranes
Experimental: as §1
Human platelet membranes (Oceanix Biosciences Corporation, Hanover, Md., USA) were thawed, diluted in buffer (Tris-HCl 50 mM, 120 mM NaCl and 5 mM KCl) and quickly (max 3 s) homogenised with an Ultraturrax homogenizer. In a total volume of 250 μL, 50-100 μg protein was incubated with [^3H]paroxetine (NET-869) (New England Nuclear, USA) (0.5 nM final concentration) with or without competitor for 60 min at 25° C. Incubation was stopped by rapid filtration of the incubation mixture over GF/B filters, pre-wetted with 0.1% polyethyleneamine, using a Filtermate 196 harvester (Packard, Meriden, Conn.). Filters were rinsed extensively with ice-cold buffer and radioactivity on the filters was counted in a Topcount liquid scintillation counter (Packard, Meriden, Conn.). Data were expressed as cpm. Imipramine (at 1 μM final concentration) was used to determine the non-specific binding.
as §4

T4 sequence (P31645 whole entry): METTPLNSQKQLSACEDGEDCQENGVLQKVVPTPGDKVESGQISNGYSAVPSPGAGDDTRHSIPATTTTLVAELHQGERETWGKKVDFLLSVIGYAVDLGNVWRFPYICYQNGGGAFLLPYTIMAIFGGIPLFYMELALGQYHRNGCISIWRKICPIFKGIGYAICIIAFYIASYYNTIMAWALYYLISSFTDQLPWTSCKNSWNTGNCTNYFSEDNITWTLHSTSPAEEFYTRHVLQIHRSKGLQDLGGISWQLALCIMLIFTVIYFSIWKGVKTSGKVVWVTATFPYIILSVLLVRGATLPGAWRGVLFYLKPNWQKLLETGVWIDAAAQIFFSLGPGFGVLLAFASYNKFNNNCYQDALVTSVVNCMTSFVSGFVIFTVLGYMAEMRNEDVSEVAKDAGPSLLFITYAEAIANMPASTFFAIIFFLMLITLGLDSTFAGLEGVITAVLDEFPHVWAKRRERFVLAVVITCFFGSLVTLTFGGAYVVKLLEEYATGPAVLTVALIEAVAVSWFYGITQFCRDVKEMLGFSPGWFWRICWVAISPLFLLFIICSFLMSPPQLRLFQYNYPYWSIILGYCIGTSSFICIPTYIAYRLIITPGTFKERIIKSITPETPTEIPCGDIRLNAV

melting point [°C] | IC50 (hα2A receptor) [nM] | IC50 (hα2B receptor) [nM] | IC50 (hα2C receptor) [nM] | IC50 (h5-HT transporter) [nM] | Compound
228.6 to 252.1 |  |  |  |  | CC(=Cc1ccccc1)CN1CCN(CC2ON=C3c4ccc(CN(C)CCO)cc4OCC32)CC1 (stereo not shown) (as salt: HCl) [Compound 9, 2-(Methyl-{3-[4-(2-methyl-3-phenyl-allyl)-piperazin-1-ylmethyl]-3a,4-dihydro-3H -chromeno[4,3-c]isoxazol-7-ylmethyl}-amino)-ethanol]
66.5 to 89.8 | 398 | 20 | 50.1 | 20 | COc1cc2c(cc1CN1CCOCC1)OCC1C2=NOC1CN1CCN(CC(C)=Cc2ccccc2)CC1 (single isomer, unassigned) [Compound 20]
56.1 to 68 | 15.8 | 6.31 | 3.16 | 10 | COc1cc2c(cc1CN1CCOCC1)OCC1C2=NOC1CN1CCN(CC(C)=Cc2ccccc2)CC1 (single isomer, unassigned) [Compound 21]
 | 1.26 | 0.501 | 0.2 | 25.1 | CC(=Cc1ccccc1)CN1CCN(CC2ON=C3c4ccc(CN(C)CCO)cc4OCC32)CC1 (stereo not shown) [Compound 9, 2-(Methyl-{3-[4-(2-methyl-3-phenyl-allyl)-piperazin-1-ylmethyl]-3a,4-dihydro-3H -chromeno[4,3-c]isoxazol-7-ylmethyl}-amino)-ethanol]
 | 6.31 | 3.98 | 0.316 | 25.1 | COc1cc2c(cc1CN1CCOCC1)OCC1C2=NOC1CN1CCN(C/C(C)=C/c2ccccc2)CC1 (stereo not shown) [Compound 10, 8-Methoxy-3-[4-(2-methyl-3-phenyl-allyl)-piperazin-1-ylmethyl]-7-morpholin-4-ylmethyl-3a,4-dihydro-3H-chromeno[4,3-c]isoxazole]
132.2 to 146.7 | 1.58 |  | 0.501 | 126 | C/C(=C\c1ccccc1)CN1CCN(CC2ON=C3c4ccc(C#N)cc4OCC32)CC1 (stereo not shown) [Compound 13, 3-[4-(2-Methyl-3-phenyl-allyl)-piperazin-1-ylmethyl]-3a,4-dihydro-3H -chromeno[4,3-c]isoxazole-7-carbonitrile]
150.1 to 171.8 | 15.8 |  | 10 |  | COc1cc2c(cc1-c1ccc(C(C)=O)s1)OCC1C2=NOC1CN1CCN(CC(C)=Cc2ccccc2)CC1 (stereo not shown) [Compound 18, 1-(5-{8-Methoxy-3-[4-(2-methyl-3-phenyl-allyl)-piperazin-1-ylmethyl]-3a,4-dihydro-3H-chromeno[4,3-c]isoxazol-7-yl}-thiophen-2-yl)-ethanone]
 | 39.8 | 12.6 | 5.01 | 3.98 | CCN(Cc1cc2c(cc1OC)C1=NOC(CN3CCN(CC(C)=Cc4ccc(F)cc4)CC3)C1CO2)C(C)C (stereo not shown) [Compound 24]
 | 6.31 | 2.51 | 0.794 | 31.6 | COc1cc2c(cc1CN1CCC(C)CC1)OCC1C2=NOC1CN1CCN(CC(C)=Cc2ccc(F)cc2)CC1 (stereo not shown) [Compound 25]
